Assay results published in patent publication US12636285B2 (ViiV Healthcare Company, priority 2019, dated 2026).
Where a name gives a salt, the structure may show the parent alone.

What was measured:
[1] = Drug interaction studies with oral rilpivirine
Solubility in water = assay type: physicochemical
Text: The cabotegravir tablet contains cabotegravir, as cabotegravir sodium. […] The tablet film-coating contains hypromellose, polyethylene glycol, and titanium dioxide.

[2] = Drug interaction studies with oral cabotegravir; details: cabotegravir 30 mg once daily; No Effect = 1.00
[3] = Established and other potentially significant drug interactions (Table 5); details: trial-based or predicted
[4] = rilpivirine 150 mg once daily, No Effect = 1.00
[5] = rilpivirine 25 mg once daily, No Effect = 1.00
[6] = rilpivirine 75 mg once daily, No Effect = 1.00

## CC(C)c1c(C(=O)Nc2ccc(O)cc2)c(-c2ccccc2)c(-c2ccc(F)cc2)n1CC[C@@H](O)C[C@@H](O)CC(=O)O [4-hydroxy-atorvastatin]
[1]; [4]
  Geometric Mean Ratio of coadministered drug AUC with/without EDURANT: 1.23
  Geometric Mean Ratio of coadministered drug Cmax with/without EDURANT: 1.28

## CO[C@H]1/C=C/O[C@@]2(C)Oc3c(C)c(O)c4c(O)c(c(/C=N/N5CCN(C)CC5)c(O)c4c3C2=O)NC(=O)/C(C)=C\C=C\[C@H](C)[C@H](O)[C@@H](C)[C@@H](O)[C@@H](C)[C@H](O)[C@@H]1C [25-desacetylrifampin]
[1]; [4]
  Geometric Mean Ratio of coadministered drug AUC with/without EDURANT: 0.91
  Geometric Mean Ratio of coadministered drug Cmax with/without EDURANT: 1.00

## CC(=O)Nc1ccc(O)cc1 [Acetaminophen]
[1]; [4]
  Geometric Mean Ratio of coadministered drug AUC with/without EDURANT: 0.91
  Geometric Mean Ratio of coadministered drug Cmax with/without EDURANT: 0.97

## C[C@H]1CO[C@@H]2Cn3cc(C(=O)NCc4ccc(F)cc4F)c(=O)c(O)c3C(=O)N12 [Cabotegravir sodium]
Solubility in water
  solubility in water: slightly soluble

## O=c1[nH]cnc2c1ncn2[C@H]1CC[C@@H](CO)O1 [Didanosine]
[1]; [4]
  Geometric Mean Ratio of coadministered drug AUC with/without EDURANT: 1.12
  Geometric Mean Ratio of coadministered drug Cmax with/without EDURANT: 0.96

## C[C@H]1O[C@@H](O[C@H]2[C@@H](O)C[C@H](O[C@H]3[C@@H](O)C[C@H](O[C@H]4CC[C@@]5(C)[C@H](CC[C@@H]6[C@@H]5C[C@@H](O)[C@]5(C)[C@@H](C7=CC(=O)OC7)CC[C@]65O)C4)O[C@@H]3C)O[C@@H]2C)C[C@H](O)[C@@H]1O [Digoxin]
[1]; [5]
  Geometric Mean Ratio of coadministered drug AUC with/without EDURANT: 0.98
  Geometric Mean Ratio of coadministered drug Cmax with/without EDURANT: 1.06

## C#C[C@]1(O)CC[C@H]2[C@@H]3CCc4cc(O)ccc4[C@H]3CC[C@@]21C [Ethinyl estradiol]
[2]
  Geometric Mean Ratio of AUC of coadministered drug with/without cabotegravir: 1.02
  Geometric Mean Ratio of Cmax of coadministered drug with/without cabotegravir: 0.92
  Geometric Mean Ratio of Cτ or C24 of coadministered drug with/without cabotegravir: 1.00
[1]; [5]
  Geometric Mean Ratio of coadministered drug AUC with/without EDURANT: 1.14
  Geometric Mean Ratio of coadministered drug Cmax with/without EDURANT: 1.17
  Geometric Mean Ratio of coadministered drug Cmin with/without EDURANT: 1.09

## CC(=O)N1CCN(c2ccc(OCC3COC(Cn4ccnc4)(c4ccc(Cl)cc4Cl)O3)cc2)CC1 (stereo not drawn) [Ketoconazole]
[1]; [4]
  Geometric Mean Ratio of coadministered drug AUC with/without EDURANT: 0.76
  Geometric Mean Ratio of coadministered drug Cmax with/without EDURANT: 0.85
  Geometric Mean Ratio of coadministered drug Cmin with/without EDURANT: 0.34

## C#C[C@]1(O)CC[C@H]2[C@@H]3CCC4=CC(=O)CC[C@@H]4[C@H]3CC[C@@]21CC [Levonorgestrel]
[2]
  Geometric Mean Ratio of AUC of coadministered drug with/without cabotegravir: 1.12
  Geometric Mean Ratio of Cmax of coadministered drug with/without cabotegravir: 1.05
  Geometric Mean Ratio of Cτ or C24 of coadministered drug with/without cabotegravir: 1.07

## CN(C)C(=N)N=C(N)N [Metformin]
[1]; [5]
  Geometric Mean Ratio of coadministered drug AUC with/without EDURANT: 0.97
  Geometric Mean Ratio of coadministered drug Cmax with/without EDURANT: 1.02

## CCC(=O)C(CC(C)N(C)C)(c1ccccc1)c1ccccc1 (stereo not drawn) [Methadone]
[3]; with narcotic analgesic methadone
  Effect on Concentration: ↓Methadone
[1]; rilpivirine 25 mg once daily, comparison based on historic controls
  rilpivirine Cmin with/without coadministered drug: ↔^b

## Cc1ncc2n1-c1ccc(Cl)cc1C(c1ccccc1F)=NC2 [Midazolam]
[2]
  Geometric Mean Ratio of AUC of coadministered drug with/without cabotegravir: 1.10
  Geometric Mean Ratio of Cmax of coadministered drug with/without cabotegravir: 1.09

## CCCc1nn(C)c2c(=O)[nH]c(-c3cc(S(=O)(=O)N4CCNCC4)ccc3OCC)nc12 [N-desmethyl-sildenafil]
[1]; [6]
  Geometric Mean Ratio of coadministered drug AUC with/without EDURANT: 0.92
  Geometric Mean Ratio of coadministered drug Cmax with/without EDURANT: 0.90

## C#C[C@]1(O)CC[C@H]2[C@@H]3CCC4=CC(=O)CC[C@@H]4[C@H]3CC[C@@]21C [Norethindrone]
[1]; [5]
  Geometric Mean Ratio of coadministered drug AUC with/without EDURANT: 0.89
  Geometric Mean Ratio of coadministered drug Cmax with/without EDURANT: 0.94
  Geometric Mean Ratio of coadministered drug Cmin with/without EDURANT: 0.99

## Cc1nnc(C(=O)NC(C)(C)c2nc(C(=O)NCc3ccc(F)cc3)c(O)c(=O)n2C)o1 [Raltegravir]
[1]; [5]
  Geometric Mean Ratio of coadministered drug AUC with/without EDURANT: 1.09
  Geometric Mean Ratio of coadministered drug Cmax with/without EDURANT: 1.10
  Geometric Mean Ratio of coadministered drug Cmin with/without EDURANT: 1.27

## CO[C@H]1/C=C/O[C@@]2(C)Oc3c(C)c(O)c4c(c3C2=O)C2=NC3(CCN(CC(C)C)CC3)NC2=C(NC(=O)/C(C)=C\C=C\[C@H](C)[C@H](O)[C@@H](C)[C@@H](O)[C@@H](C)[C@H](OC(C)=O)[C@@H]1C)C4=O [Rifabutin]
[3]; with antimycobacterial rifabutin
  Effect on Concentration: ↔Rifabutin

## CO[C@H]1/C=C/O[C@@]2(C)Oc3c(C)c(O)c4c(O)c(c(/C=N/N5CCN(C)CC5)c(O)c4c3C2=O)NC(=O)/C(C)=C\C=C\[C@H](C)[C@H](O)[C@@H](C)[C@@H](O)[C@@H](C)[C@H](OC(C)=O)[C@@H]1C [Rifampin]
[1]; [4]
  Geometric Mean Ratio of coadministered drug AUC with/without EDURANT: 0.99
  Geometric Mean Ratio of coadministered drug Cmax with/without EDURANT: 1.02

## CCCc1nn(C)c2c(=O)[nH]c(-c3cc(S(=O)(=O)N4CCN(C)CC4)ccc3OCC)nc12 [Sildenafil]
[1]; [6]
  Geometric Mean Ratio of coadministered drug AUC with/without EDURANT: 0.97
  Geometric Mean Ratio of coadministered drug Cmax with/without EDURANT: 0.93

## CC(C)OC(=O)OCOP(=O)(CO[C@H](C)Cn1cnc2c(N)ncnc21)OCOC(=O)OC(C)C [Tenofovir disoproxil fumarate]
[1]; [4]
  Geometric Mean Ratio of coadministered drug AUC with/without EDURANT: 1.23
  Geometric Mean Ratio of coadministered drug Cmax with/without EDURANT: 1.19
  Geometric Mean Ratio of coadministered drug Cmin with/without EDURANT: 1.24

## Lopinavir/ritonavir
[1]; [4]
  Geometric Mean Ratio of coadministered drug AUC with/without EDURANT: 0.99
  Geometric Mean Ratio of coadministered drug Cmax with/without EDURANT: 0.96
  Geometric Mean Ratio of coadministered drug Cmin with/without EDURANT: 0.89
  Geometric Mean Ratio of rilpivirine AUC with/without coadministered drug: 0.99
  Geometric Mean Ratio of rilpivirine Cmax with/without coadministered drug: 0.96
  Geometric Mean Ratio of rilpivirine Cmin with/without coadministered drug: 0.89
